Source: patent US10517889B2, “Modulators of SMAD7 expression” (Ionis Pharmaceuticals, Inc., priority 2017, dated 2019)
Strand notation (5' to 3'): a small letter for the sugar, then the base; units joined by * are phosphorothioate-linked, units joined directly phosphodiester-linked; [ ] holds rarer units or linkages, { } end groups; capitals alone tell only the bases. e = 2'-O-(2-methoxyethyl) (MOE); [5mC] = 5-methylcytosine; d = 2'-deoxy (DNA)

What was measured:
human SMAD7 mRNA [1] = experiment: Antisense inhibition of human SMAD7 mRNA expression in Hep3B cells by 5-10-5 MOE gapmers, single concentration, electroporation, RT-PCR (Example 1, Study 1 and 2); assay type: cell-based
Summary of the method: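 Hep3B cells (20,000/well) electroporated with 5-10-5 MOE gapmer at 5,000 nM or 15,000 nM for approximately 24 h. SMAD7 mRNA quantified by real-time PCR with primer probe set RTS5062 and normalized to RIBOGREEN total RNA. Values are percent inhibition relative to untreated controls.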

human SMAD7 mRNA [2] = experiment: Dose-dependent inhibition of human SMAD7 mRNA expression in Hep3B cells (Example 3, Study 1 and 2); assay type: cell-based; conditions: electroporation; for % inhibition of SMAD7 mRNA expression: approximately 16 hours; for IC50: Study 1 (312.5-20000 nM)
Summary of the method: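 Hep3B cells, 20,000 per well, electroporated with antisense oligonucleotide at 0.31, 1.25, 5.00 or 20.00 μM (first series) or 0.74, 2.22, 6.67 or 20.00 μM (second series). After ~16 h, SMAD7 mRNA measured by RT-qPCR (RTS5062), normalised to RIBOGREEN total RNA. Percent inhibition vs untreated cells; IC50 derived.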

[3] = electroporation with 15,000 nM antisense oligonucleotide (Study 2), 5-10-5 MOE gapmers targeting SEQ ID NO: 1 and 2
[4] = 312.5 nM, Study 1, relative to untreated control cells
[5] = Study 2, electroporation with 15,000 nM antisense oligonucleotide, 5-10-5 MOE gapmers targeting SEQ ID NO: 1 and 2
[6] = electroporation, 15,000 nM antisense oligonucleotide (Study 2), 5-10-5 MOE gapmers targeting SEQ ID NO: 1 and 2
[7] = electroporation, 15,000 nM, approximately 24 hours, relative to untreated control cells, gapmers targeting SEQ ID NO: 1 and 2
[8] = electroporation, 5,000 nM, approximately 24 hours, relative to untreated control cells, gapmers targeting SEQ ID NO: 1 and 2

Substance	% inhibition of SMAD7 mRNA expression (human SMAD7 mRNA [2]; [4]) [%]	% inhibition of SMAD7 mRNA expression (human SMAD7 mRNA [2]; 1250.0 nM, Study 1) [%]	% inhibition of SMAD7 mRNA expression (human SMAD7 mRNA [2]; 5000.0 nM, Study 1) [%]	% inhibition of SMAD7 mRNA expression (human SMAD7 mRNA [2]; 20000.0 nM, Study 1) [%]	IC50 (human SMAD7 mRNA [2]) [µM]	% Inhibition (human SMAD7 mRNA [1]; [5]) [%]	further results
771632 (antisense eA*eA*eT*e[5mC]*e[5mC]*dT*dT*d[5mC]*dT*dT*dG*dG*dA*dG*dG*eG*eA*eA*eG*eG) [compound 771632]	6	6	46	64	9		% Inhibition of SMAD7 mRNA (human SMAD7 mRNA [1]; [3]): 54%; % inhibition of SMAD7 mRNA expression (human SMAD7 mRNA [1]; [3]): 31%
771556 (antisense e[5mC]*e[5mC]*e[5mC]*eT*eT*d[5mC]*dA*dT*dA*d[5mC]*dA*d[5mC]*dT*dG*dT*eG*eT*eT*eT*eG) [compound 771556]	1	0	9	33	> 20		% inhibition of SMAD7 mRNA expression (human SMAD7 mRNA [1]; [5]): 30%
771474 (antisense eG*e[5mC]*eA*eG*e[5mC]*d[5mC]*dG*dA*dT*dT*dT*dT*dG*d[5mC]*dT*e[5mC]*e[5mC]*eG*e[5mC]*eA) [compound 771474]	3	4	21	52	17		% inhibition of SMAD7 mRNA expression (human SMAD7 mRNA [1]; [6]): 56%
771414 (eT*e[5mC]*eG*eG*e[5mC]*dT*dG*dT*d[5mC]*d[5mC]*dG*dT*d[5mC]*dG*d[5mC]*e[5mC]*e[5mC]*e[5mC]*eT*eT; antisense) [compound 771414]	0	2	43	33	> 20		% inhibition of SMAD7 mRNA expression (human SMAD7 mRNA [1]; [7]): 65%
771464 (antisense eG*eA*eG*eA*eG*dG*dG*d[5mC]*dT*d[5mC]*d[5mC]*dT*dG*dG*dA*e[5mC]*eA*e[5mC]*eA*eG) [compound 771464]	11	8	21	50	> 20	55	
771403 (antisense eG*eA*eA*e[5mC]*eA*dT*dG*dA*d[5mC]*d[5mC]*dT*d[5mC]*d[5mC]*dG*d[5mC]*eA*e[5mC]*eA*e[5mC]*e[5mC]) [compound 771403]	5	4	25	35	> 20		% inhibition of SMAD7 mRNA expression (human SMAD7 mRNA [1]; [6]): 62%
771581 (antisense eG*eG*eG*eA*e[5mC]*d[5mC]*d[5mC]*d[5mC]*dA*dG*d[5mC]*d[5mC]*dG*d[5mC]*d[5mC]*eA*eG*e[5mC]*eT*eT) [compound 771581]	0	0	9	65	19		% inhibition of SMAD7 mRNA expression (human SMAD7 mRNA [1]; [7]): 58%
771439 (eG*eG*e[5mC]*eT*eG*d[5mC]*dG*d[5mC]*dG*d[5mC]*d[5mC]*dG*dG*d[5mC]*dG*eG*eG*e[5mC]*eG*e[5mC]; antisense) [compound 771439]	0	24	49	55	9	48	
771715 (antisense eA*eG*eT*e[5mC]*eT*d[5mC]*d[5mC]*dG*dA*dG*dT*dT*dA*dT*d[5mC]*e[5mC]*e[5mC]*e[5mC]*eA*eT) [compound 771715]	7	18	42	49	17	67	% inhibition of SMAD7 mRNA expression (human SMAD7 mRNA [1]; [8]): 68%
771390 (antisense e[5mC]*eG*eG*e[5mC]*eT*dG*d[5mC]*d[5mC]*d[5mC]*d[5mC]*dA*d[5mC]*d[5mC]*d[5mC]*d[5mC]*eG*e[5mC]*eG*e[5mC]*eG) [compound 771390]	0	12	26	51	> 20	66	% inhibition of SMAD7 mRNA expression (human SMAD7 mRNA [1]; [8]): 32%
771664 (antisense eT*eA*eA*eA*eT*dT*dT*d[5mC]*d[5mC]*dA*dA*dT*dG*dA*dG*eA*eA*eT*eG*e[5mC]) [compound 771664]							% Inhibition of SMAD7 mRNA (human SMAD7 mRNA [1]; [3]): 25%; % inhibition of SMAD7 mRNA expression (human SMAD7 mRNA [1]; [3]): 5%
771685 (antisense e[5mC]*eT*eT*eT*eT*dT*dT*dA*dA*dT*dT*dT*dG*dG*d[5mC]*eA*eT*eT*eT*eG) [compound 771685]							% inhibition of SMAD7 mRNA expression (human SMAD7 mRNA [1]; [7]): 17%
771618 (antisense e[5mC]*eA*eG*eG*eA*dT*dG*dG*dG*dA*dG*d[5mC]*dA*dG*dG*e[5mC]*eA*eG*eT*eG) [compound 771618]							% inhibition of SMAD7 mRNA expression (human SMAD7 mRNA [1]; [3]): 30%
771816 (antisense eA*eT*e[5mC]*e[5mC]*eA*dA*d[5mC]*dT*dA*d[5mC]*dT*d[5mC]*dA*dG*dA*eG*eG*e[5mC]*eT*eG) [compound 771816]							% Inhibition of SMAD7 mRNA (human SMAD7 mRNA [1]; [3]): 28%; % inhibition of SMAD7 mRNA expression (human SMAD7 mRNA [1]; [6]): 27%
771644 (antisense eG*eA*eA*eG*eA*dA*dA*dT*dG*dA*dA*dA*dG*dA*dA*eG*eA*eG*eT*eT) [compound 771644]							% inhibition of SMAD7 mRNA expression (human SMAD7 mRNA [1]; [5]): 0%
771564 (antisense eG*e[5mC]*e[5mC]*eG*e[5mC]*dA*d[5mC]*dA*d[5mC]*dT*d[5mC]*dA*d[5mC]*dA*d[5mC]*eT*e[5mC]*eA*e[5mC]*eA) [compound 771564]							% inhibition of SMAD7 mRNA expression (human SMAD7 mRNA [1]; [5]): 28%
771434 (eG*e[5mC]*e[5mC]*eG*e[5mC]*dT*d[5mC]*d[5mC]*dT*dT*d[5mC]*dA*dG*dT*dT*eT*e[5mC]*eT*eT*eG; antisense) [compound 771434]							% inhibition of SMAD7 mRNA expression (human SMAD7 mRNA [1]; [6]): 27%
771429 (eA*e[5mC]*e[5mC]*eT*eT*dT*dG*dG*d[5mC]*dA*d[5mC]*d[5mC]*dT*d[5mC]*dG*e[5mC]*eA*e[5mC]*e[5mC]*eG; antisense) [compound 771429]						11	
771502 (antisense e[5mC]*eG*e[5mC]*eT*e[5mC]*dT*dG*dT*d[5mC]*d[5mC]*d[5mC]*d[5mC]*dT*d[5mC]*d[5mC]*eG*e[5mC]*eA*e[5mC]*eG) [compound 771502]							% inhibition of SMAD7 mRNA expression (human SMAD7 mRNA [1]; [7]): 48%
771428 (eT*eG*eG*e[5mC]*eA*d[5mC]*d[5mC]*dT*d[5mC]*dG*d[5mC]*dA*d[5mC]*d[5mC]*dG*e[5mC]*e[5mC]*eT*eT*eG; antisense) [compound 771428]						47	% inhibition of SMAD7 mRNA expression (human SMAD7 mRNA [1]; [8]): 0%
771735 (antisense eT*eG*eG*eG*eT*d[5mC]*d[5mC]*d[5mC]*dT*d[5mC]*dA*dA*dG*dA*dG*e[5mC]*eT*e[5mC]*eA*e[5mC]) [compound 771735]						38	
771780 (antisense eA*e[5mC]*eA*eA*eA*d[5mC]*d[5mC]*dT*dT*d[5mC]*d[5mC]*dG*dA*dA*dA*eG*eG*eA*e[5mC]*e[5mC]) [compound 771780]						20	
771892 (antisense e[5mC]*eT*eG*eA*eA*dG*dT*dT*dT*d[5mC]*dT*d[5mC]*d[5mC]*dT*d[5mC]*e[5mC]*e[5mC]*eA*eT*e[5mC]) [compound 771892]						2	
771851 (antisense eG*e[5mC]*eT*eT*eT*dG*dA*dA*dA*dA*d[5mC]*dA*dT*d[5mC]*d[5mC]*e[5mC]*eA*e[5mC]*eT*eT) [compound 771851]						43	% inhibition of SMAD7 mRNA expression (human SMAD7 mRNA [1]; [8]): 25%
771730 (antisense eA*eA*eT*eG*e[5mC]*d[5mC]*d[5mC]*d[5mC]*d[5mC]*dG*dG*d[5mC]*d[5mC]*dA*d[5mC]*eA*eG*e[5mC]*eA*eG) [compound 771730]							% inhibition of SMAD7 mRNA expression (human SMAD7 mRNA [1]; [6]): 27%
771833 (antisense eT*eT*eA*eA*eA*dG*dA*dA*dA*dA*dT*dG*dG*d[5mC]*d[5mC]*eT*eA*e[5mC]*eA*eT) [compound 771833]							% inhibition of SMAD7 mRNA expression (human SMAD7 mRNA [1]; [6]): 21%
